Measured values as given in patent US5399703A, “Tetrazole derivatives and drugs” (Nippon Shinyaku Company, Limited, priority 1990, dated 1995).
Read-outs that look alike come from different tables or passages of the source. Blank lines part the entries; values can stand above or below the compound they belong to.

What was measured:
LTD4 receptor = molecular target: T1, LTD4 receptor (Cavia porcellus, UniProt Q2NNR5); assay: Leukotriene D4 (LTD4) binding assay (3H-LTD4, guinea pig lung membrane fraction); details: for IC50: guinea pig lung membrane, 3H-LTD4, 25° C., 1 hour
T1 construct: membrane fraction prepared from the guinea pig lung; from tissue; host or cells: guinea pig lung membrane fraction
T1 sequence (Q2NNR5 1-340): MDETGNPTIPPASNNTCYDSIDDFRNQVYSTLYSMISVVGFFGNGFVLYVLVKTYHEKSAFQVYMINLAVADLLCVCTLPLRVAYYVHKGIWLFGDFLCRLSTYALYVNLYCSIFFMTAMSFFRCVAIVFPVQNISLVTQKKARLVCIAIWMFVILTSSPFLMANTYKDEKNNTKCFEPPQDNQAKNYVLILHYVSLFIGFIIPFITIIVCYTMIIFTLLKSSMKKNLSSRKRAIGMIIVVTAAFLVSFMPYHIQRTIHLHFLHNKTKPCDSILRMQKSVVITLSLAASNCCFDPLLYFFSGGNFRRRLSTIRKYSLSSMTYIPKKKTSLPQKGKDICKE
Experimental: 1) Leukotriene D4 (LTD4) binding assay
First, 0.2 pmol of ^3 H-LTD4 and 100 μg of the membrane fraction prepared from the guinea pig lung were incubated at 25° C. for 1 hour and then the reaction mixture was filtered through a glass filter. The radioactivity of ^3 H-LTD4 bound to the membrane remaining on the glass filter was determined and this value was regarded as total binding (total).
Similarly, 100 μg of the membrane fraction was incubated with 0.2 pmol of ^3 H-LTD4 in the presence of a large excess of cold LTD4 (0.1 nmol) at 25° C. for 1 hour and the radioactivity of ^3 H-LTD4 bound to the membrane was determined and regarded as nonspecific binding (NSB).
Specific binding (SB) of ^3 H-LTD4 was calculated according to expression (1).
To investigate the effect of the test substance on LTD4 receptor binding, the test substance was added at the determination of total binding and the total binding in the presence of the test substance (total') was determined. The percent inhibition was calculated according to expression (2).
(total-total')/SB×100 (2)

[1] = system: endogenous LT-induced airway contractile response in guinea pigs; assay: Effect on endogenous leukotriene (LT)-induced experimental asthma; type: in vivo; details: guinea pig; for ED50: Cavia porcellus
[2] = system: antigen-induced airway contractile response in guinea pigs; assay: Effect on experimental asthma (antigen-induced airway contractile response); type: in vivo; details: guinea pig
Experimental: (4) Effect on experimental asthma
The airway contractile response to intravenous administration of an antigen (benzylpenicilloyl-bovine serum albumin) to guinea pigs passively senstitized with anti-benzylpenicilloyl-bovine gamma globulin guinea pig serum was determined by the Konzett-Rossler method.
The test substance suspended in 0.5% methylcellulose was administered orally and 3 hours later, the airway contractile response caused by antigen-antibody reaction was determined. With the response on complete obstruction of the airway cannula with a clamp taken as 100% contraction, the maximal airway contractile response (expressed in percent) caused by antigen antibody reaction was determined. From this value, the percent inhibition, relative to the control, by the test substance was determined.

IC50 (LTD4 receptor): 3340 nM
SMILES: CCCCOC(=O)COc1ccc(C(=O)Nc2ccccc2Sc2ccccc2-c2nnn[nH]2)cc1 [Example 67, Butyl 4-[2-[2-(1H-tetrazol-5-yl)phenylthio]phenylcarbamoyl]phenoxyacetate]
Endogenous LT-induced experimental asthma p.o. inhibition (%) ([1]; at 0.3 mg/kg): 61.2%
Experimental asthma p.o. inhibition (%) ([2]; at 10 mg/kg): 82.6%

IC50 (LTD4 receptor): 18200 nM
SMILES: CCN(CC)C(=O)COC(=O)COc1ccc(C(=O)Nc2ccccc2Sc2ccccc2-c2nnn[nH]2)cc1 [Example 105, N,N-Diethylcarbamoylmethyl 4-[2-[2-(1H-tetrazol-5-yl)phenylthio]phenylcarbamoyl]phenoxyacetate]
Endogenous LT-induced experimental asthma p.o. inhibition (%) ([1]; at 0.3 mg/kg): 29.4%
Experimental asthma p.o. inhibition (%) ([2]; at 10 mg/kg): 87.9%

The next lines start with the compound.

SMILES: CCCc1c(OCC(O)COc2ccc3c(=O)cc(C(=O)O)oc3c2CCC)ccc(C(C)=O)c1O (stereo not drawn) [C, reference compound]
IC50 (LTD4 receptor): 3820 nM
ED50 ([1]; iv, read-out: Endogenous LT-induced experimental asthma ED50 (i.v.)): 0.2 mg/kg

SMILES: O=C(Nc1ccccc1Sc1ccccc1-c1nnn[nH]1)c1ccc(OCCCCc2ccccc2)cc1 [Example 4, N-[2-[2-(1H-Tetrazol-5-yl)phenylthio]phenyl]-4-(4-phenylbutoxy)benzamide]
IC50 (LTD4 receptor): 35.8 nM
Endogenous LT-induced experimental asthma p.o. inhibition (%) ([1]; at 30 mg/kg): 30.9%

SMILES: O=C(O)COc1ccc(C(=O)Nc2ccccc2Sc2ccccc2-c2nnn[nH]2)cc1 [Example 6, 4-[2-[2-(1H-Tetrazol-5-yl)phenylthio]phenylcarbamoyl]phenoxyacetic acid]
inhibition at 10 µM (LTD4 receptor; at 10^-5 M): 28.9%
Endogenous LT-induced experimental asthma p.o. inhibition (%) ([1]; at 0.1 mg/kg): 36.2%
Experimental asthma p.o. inhibition (%) ([2]; at 30 mg/kg): 37.9%

SMILES: CCCCCCOc1ccc(C(=O)Nc2ccccc2Sc2ccccc2-c2nnn[nH]2)cc1 [Example 7, N-[2-[2-(1H-Tetrazol-5-yl)phenylthio]phenyl]-4-hexyloxybenzamide]
IC50 (LTD4 receptor): 180 nM
ED50 ([1]; po, 3 hours before antigen, read-out: Endogenous LT-induced experimental asthma p.o. ED50): 0.111 mg/kg
ED50 ([2]; Cavia porcellus, po, 3 hours before antigen): 3.52 mg/kg

SMILES: CCCC/C=C/COc1ccc(C(=O)Nc2ccccc2Sc2ccccc2-c2nnn[nH]2)cc1 [Example 14, (E)-N-[2-[2-(1H-Tetrazol-5-yl)phenylthio]phenyl]-4-(2-heptenyloxy)benzamide]
IC50 (LTD4 receptor): 22 nM
Endogenous LT-induced experimental asthma p.o. inhibition (%) ([1]; at 30 mg/kg): 58.3%
